For 24 molecules, Ki results are on record in patent publication US9815796B2 (Merck Sharp & Dohme Corp., priority 2013, dated 2017).

Each structure is given as a SMILES string.

For the assay, the target named is human PDE2A1 (Homo sapiens (Human), UniProt O00408). The assay is described as follows: IMAP FP PDE selectivity panel, human PDE2A1. In kind it is biochemical. The settings on record: Human PDE2, Lab B; read-out: Human PDE2 Ki (nM) - Lab B. The procedure: Selectivity for PDE2, as compared to other PDE families, was assessed using the IMAP® technology. Human PDE 10A2 enzyme was prepared from cytosolic fractions of transiently transfected HEK cells. All other PDE's were GST Tag human enzyme expressed in insect cells and were obtained from BPS Bioscience (San Diego, Calif.): PDE1A (Cat#60010), human PDE2A1 (Cat#60020), PDE3A (Cat#60030), PDE4A1A (Cat#60040), PDE5A1 (Cat#60050), PDE6C (Cat#60060), PDE7A (Cat#60070), PDE8A1 (Cat#60080), PDE9A2 (Cat#60090), PDE11A4 (Cat#60110).
Chain of human PDE2A1 (O00408 other isoform, or with tags, fused parts or gaps): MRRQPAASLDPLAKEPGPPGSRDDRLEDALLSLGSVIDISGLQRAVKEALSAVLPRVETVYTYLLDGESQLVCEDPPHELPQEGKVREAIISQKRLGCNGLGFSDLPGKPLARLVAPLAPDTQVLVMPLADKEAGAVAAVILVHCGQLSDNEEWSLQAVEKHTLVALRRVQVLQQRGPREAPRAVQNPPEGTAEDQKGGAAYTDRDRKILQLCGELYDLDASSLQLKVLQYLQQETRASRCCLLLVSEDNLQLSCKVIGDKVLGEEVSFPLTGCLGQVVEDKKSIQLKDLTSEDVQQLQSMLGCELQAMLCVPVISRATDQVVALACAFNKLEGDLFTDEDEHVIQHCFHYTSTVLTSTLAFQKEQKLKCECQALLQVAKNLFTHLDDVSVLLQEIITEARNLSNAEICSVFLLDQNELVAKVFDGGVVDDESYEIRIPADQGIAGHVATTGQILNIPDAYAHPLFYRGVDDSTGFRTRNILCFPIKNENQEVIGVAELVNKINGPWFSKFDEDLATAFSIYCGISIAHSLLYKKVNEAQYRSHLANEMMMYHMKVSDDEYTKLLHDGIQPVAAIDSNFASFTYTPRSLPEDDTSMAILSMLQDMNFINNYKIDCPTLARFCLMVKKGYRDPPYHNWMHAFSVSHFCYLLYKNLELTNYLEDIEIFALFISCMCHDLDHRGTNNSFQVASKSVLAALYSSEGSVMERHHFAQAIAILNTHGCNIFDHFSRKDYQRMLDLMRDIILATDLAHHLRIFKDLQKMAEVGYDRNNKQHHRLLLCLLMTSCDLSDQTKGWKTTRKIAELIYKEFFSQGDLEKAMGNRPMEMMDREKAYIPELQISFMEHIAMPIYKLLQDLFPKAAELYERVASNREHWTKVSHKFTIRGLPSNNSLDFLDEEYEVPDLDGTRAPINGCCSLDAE
Assays for PDE 1 through 11 were performed in parallel at room temperature in 384-well microtiter plates with an incubation volume of 20.2 μL. Solutions of test compounds were prepared in DMSO and serially diluted with DMSO to yield 30 μL of each of ten solutions differing by 3-fold in concentration, at 32 serial dilutions per plate. […] A Labcyte POD 810 (Labcyte, Sunnyvale, Calif.) was used to dispense 200 nL from each well of the titration plate to make eleven copies of the assay plate for each titration, one copy for each PDE enzyme. A solution of each enzyme (dilution from aliquots, sufficient to produce 20% substrate conversion) and a separate solution of FAM-labeled cAMP or FAM-labeled cGMP from Molecular Devices (Sunnyvale, Calif., product # R7506 or cGMP#R7508), at a final concentration of 50 nM were made in the assay buffer (10 mM Tris HCl, pH 7.2, 10 mM MgCl2, 0.05% NaN3 0.01% Tween-20, and 1 mM DTT). Note that the substrate for PDE2 is 50 nM FAM cAMP containing 1000 nM of cGMP. The enzyme and the substrate were then added to the assay plates in two consecutive additions of 10 μL and then shaken to mix. The reaction was allowed to proceed at room temperature for 60 minutes. A binding solution was then made from the kit components, comprised of 80% Solution A, 20% Solution B and binding reagent at a volume of 1/600 the total binding solution. The enzymatic reaction was stopped by addition of 60 μL of the binding solution to each well of the assay plate. The plates were sealed and shaken for 10 seconds. The plates were incubated at room temperature for one hour, then the parallel and perpendicular fluorescence was measured using a Tecan Genios Pro plate reader (Tecan, Switzerland). The apparent inhibition constants for the compounds against all 11 PDE's was determined from the parallel and perpendicular fluorescent readings as described for PDE10 FP assay using the following apparent KM values for each enzyme and substrate combination: PDE1A (FAM cGMP) 70 nM, human PDE2A1 (FAM cAMP) 10,000 nM, PDE3A (FAM cAMP) 50 nM, PDE4A1A (FAM cAMP) 1500 nM, PDE5A1 (FAM cGMP) 400 nM, PDE6C (FAM cGMP) 700 nM, PDE7A (FAM cAMP) 150 nM, PDE8A1 (FAM cAMP) 50 nM, PDE9A2 (FAM cGMP) 60 nM, PDE10A2 (FAM cAMP) 150 nM, PDE11A4 (FAM cAMP) 1000 nM. The intrinsic PDE2 inhibitory activity of a compound which may be used in accordance with the present invention may be determined by these assays.
With `CCc1nc(C(=O)NC(C)(C)c2ccc(C(F)(F)F)cc2Cl)cc(=O)[nH]1` [Example 608, N-{1-[2-chloro-4-(trifluoromethyl)phenyl]-1-methylethyl}-2-ethyl-6-oxo-1,6-dihydropyrimidine-4-carboxamide], the inhibitory constant (Ki) (as a rule, the equilibrium dissociation constant of an inhibitor or competing ligand from its target) was 3.2 nM.
Then `CC(C)(C)[C@@H](NC(=O)c1cc(=O)[nH]c(-c2ccccc2)n1)c1ccc(C(F)(F)F)cc1F` [Example 545, N-{(1R)-1-[2-fluoro-4-(trifluoromethyl)phenyl]-2,2-dimethylpropyl}-6-oxo-2-phenyl-1,6-dihydropyrimidine-4-carboxamide], with 1.2 nM; and `CC(C)[C@@H](NC(=O)c1cc(=O)[nH]c(-c2ccccc2)n1)c1ccc(C2(C)CC2)cc1` [Example 533, N-{(1R)-2-methyl-1-[4-(1-methylcyclopropyl)phenyl]propyl}-6-oxo-2-phenyl-1,6-dihydropyrimidine-4-carboxamide], with 8 nM.
The same measure for `CC(C)(C)[C@@H](NC(=O)c1cc(=O)[nH]c(-c2ncccn2)n1)c1ccc(CC(F)(F)F)cc1` [Example 558, N-[(1R)-2,2-dimethyl-1-[4-(2,2,2-trifluoroethyl)phenyl]propyl}-6-oxo-1,6-dihydro-2,2′-bipyrimidine-4-carboxamide]: 35 nM.
For `CCc1nc(C(=O)N[C@H](C)c2ccc(S(F)(F)(F)(F)F)cc2)cc(=O)[nH]1` [Example 599, 2-ethyl-6-oxo-N-{(1R)-1-[4-(pentafluoro-λ^6-sulfanyl)phenyl]ethyl}-1,6-dihydropyrimidine-4-carboxamide], the Ki was found to be 10 nM.
Then `Cc1nc(C(=O)N[C@@H](c2ccc3c(c2)OC(F)(F)O3)C2CC2)cc(=O)[nH]1` [Example 609, N-[(R)-cyclopropyl(2,2-difluoro-1,3-benzodioxol-5-yl)methyl]-2-methyl-6-oxo-1,6-dihydropyrimidine-4-carboxamide], with 94 nM; and `CC1([C@@H](NC(=O)c2cc(=O)[nH]c(-c3ncccn3)n2)c2ccc(S(F)(F)(F)(F)F)cc2)CC1` [Example 564, N-{(R)-(1-methylcyclopropyl)[4-(pentafluoro-λ^6-sulfanyl)phenyl]methyl}-6-oxo-1,6-dihydro-2,2′-bipyrimidine-4-carboxamide], with 6.7 nM.
Then `CC(C)(C)[C@@H](NC(=O)c1cc(=O)[nH]c(-c2ncccn2)n1)c1ccc(C(F)(F)F)c([N+](=O)[O-])c1` [Example 567, N-{(1R)-2,2-dimethyl-1-[3-nitro-4-(trifluoromethyl)phenyl]propyl}-6-oxo-1,6-dihydro-2,2′-bipyrimidine-4-carboxamide], with 49 nM; and `Cc1nc(C(=O)N[C@]2(c3ccc(C(F)(F)F)cc3)C[C@@H]2C)cc(=O)[nH]1` (single isomer, unassigned) [Example 671, 2-methyl-N-{2-methyl-1-[4-(trifluoromethyl)phenyl)cyclopropyl}-6-oxo-1,6-dihydropyrimidine-4-carboxamide], with 14 nM.
As for `Cc1nc(C(=O)N[C@@H](c2ccc(C(F)F)cc2)C2CC2)cc(=O)[nH]1` [Example 649, N-{(1R)-cyclopropyl[4-(difluoromethyl)phenyl]methyl}-2-methyl-6-oxo-1,6-dihydropyrimidine-4-carboxamide], the inhibition constant Ki worked out at 47 nM.
For `Cc1nc(C(=O)N[C@]2(c3ccc(C(C)C)cc3)C[C@H]2C)cc(=O)[nH]1` (single isomer, unassigned) [Example 664, 2-methyl-N-{2-methyl-1-[4-(1-methylethyl)phenyl]cyclopropyl}-6-oxo-1,6-dihydropyrimidine-4-carboxamide], the inhibition constant (Ki) is around 1570 nM.
Consider `CC(NC(=O)c1cc(=O)[nH]c(-c2ccccc2)n1)c1ccc(C(C)(C)C(F)(F)F)cc1` (single isomer, unassigned) [Example 699, (R)- or (S)-6-oxo-2-phenyl-N-(1-(4-(1,1,1-trifluoro-2-methylpropan-2-yl)phenyl)ethyl)-1,6-dihydropyrimidine-4-carboxamide], for which the inhibitory constant (Ki) was found to be 103 nM.
For `CC[C@@H](NC(=O)c1cc(=O)[nH]c(C)n1)c1ccc2c(c1)OC(F)(F)O2` [Example 632, N-[(1R)-1-(2,2-difluoro-1,3-benzodioxol-5-yl)propyl]-2-methyl-6-oxo-1,6-dihydropyrimidine-4-carboxamide], the Ki is 106 nM.
The same measure for `CC(NC(=O)c1cc(=O)[nH]c(-c2ccccc2)n1)c1ccc(C2(C(F)(F)F)CC2)cc1` (single isomer, unassigned) [Example 691, (R)- or (S)-6-oxo-2-phenyl-N-(1-(4-(1-(trifluoromethyl)cyclopropyl)phenyl)-ethyl)-1,6-dihydropyrimidine-4-carboxamide]: 39 nM.
The same measure for `CC(NC(=O)c1cc(=O)[nH]c(-c2ncccn2)n1)c1ccc(C(C)(C)C(F)(F)F)cc1` (single isomer, unassigned) [Example 700, (S)- or (R)-6-oxo-N-(1-(4-(1,1,1-trifluoro-2-methylpropan-2-yl)phenyl)ethyl)-1,6-dihydro-[2,2′-bipyrimidine]-4-carboxamide]: above 2960 nM; for `CC(NC(=O)c1cc(=O)[nH]c(C2CC2)n1)c1ccc(C(C)(C)C(F)(F)F)cc1` (single isomer, unassigned) [Example 697]: 115 nM; for `CC1(c2ccc(C(NC(=O)c3cc(=O)[nH]c(-c4ccccc4)n3)C(C)(C)C)cc2F)CC1` (single isomer, unassigned) [Example 714, (S)- or (R)-N-(1-(3-fluoro-4-(1-methylcyclopropyl)phenyl)-2,2-dimethylpropyl)-6-oxo-2-phenyl-1,6-dihydropyrimidine-4-carboxamide]: around 1820 nM.
With `O=C(NC1(c2ccc(S(F)(F)(F)(F)F)cc2)CC1)c1cc(=O)[nH]c(-c2ccccc2)n1` [Example 553, 6-oxo-N-{1-[4-(pentafluoro-λ^6-sulfanyl)phenyl]cyclopropyl}-2-phenyl-1,6-dihydropyrimidine-4-carboxamide], the Ki is 10 nM.
Regarding `CC(NC(=O)c1cc(=O)[nH]c(C2CC2)n1)c1ccc(C(C)(C)C(F)(F)F)cc1` (single isomer, unassigned) [Example 696], the Ki was above 2960 nM.
The same measure for `CC(C)(C)c1ccc(C2(NC(=O)c3cc(=O)[nH]c(-c4ncccn4)n3)CC2)cc1` [Example 575, N-[1-(4-tert-butylphenyl)cyclopropyl]-6-oxo-1,6-dihydro-2,2′-bipyrimidine-4-carboxamide]: 65 nM.
As to `CC(C)(C)[C@@H](NC(=O)c1cc(=O)[nH]c(-c2ncccn2)n1)c1ccc(S(F)(F)(F)(F)F)cc1` [Example 566, N-{(1R)-2,2-dimethyl-1-[4-(pentafluoro-λ^6-sulfanyl)phenyl]propyl}-6-oxo-1,6-dihydro-2,2′-bipyrimidine-4-carboxamide], the Ki stood at 4.3 nM.
Then `Cc1nc(C(=O)NC(C)c2ccc(C3(C(F)(F)F)CC3)cc2)cc(=O)[nH]1` (single isomer, unassigned) [Example 686, (S)- or (R)-2-methyl-6-oxo-N-(1-(4-(1-(trifluoromethyl)cyclopropyl)phenyl)-ethyl)-1,6-dihydropyrimidine-4-carboxamide], with above 2960 nM; and `Cc1nc(C(=O)NC(c2ccc(S(F)(F)(F)(F)F)cc2F)C(C)(C)C)cc(=O)[nH]1` (single isomer, unassigned) [Example 720, (R)- or (S)-N-(1-(2-fluoro-4-(pentafluoro-λ^6-sulfanyl)phenyl)-2,2-dimethylpropyl)-2-methyl-6-oxo-1,6-dihydropyrimidine-4-carboxamide], with 2.6 nM.
The same measure for `Cc1nc(C(=O)N[C@@H](c2ccc(C(F)F)cc2)C(C)(C)C)cc(=O)[nH]1` [Example 644, N-{(1R)-1-[4-(difluoromethyl)phenyl]-2,2-dimethylpropyl}-2-methyl-6-oxo-1,6-dihydropyrimidine-4-carboxamide]: 7.3 nM.
